Experimental data reported in patent US20110263574A1, “PIRENZEPINE AS OTOPROTECTIVE AGENT” (PROTEOSYS AG, priority 2009, published 2011).
“Also recorded” adds a separate entry of the source.

Tests used:
[1] = test system: PARP-1; settings: induced by transient ischemia or acoustic trauma; Tabuchi et al.; cited from earlier work
[2] = test system: Inner hair cells (IHC); test: Otoprotection in cultivated cochlea, cis-platin induced loss of inner hair cells; assay type: cell-based; settings: cultivated cochlea of post-natal mice; cis-platin 5 μM; test compound 0.1 to 100 μM; compared to controls
Protocol: (§1) In cultivated cochlea, a loss of sensory or hair cells was induced by administering cis-platin (5 μM).
(§2) Intact cochlea of post-natal mice were cultivated up to 7 days (Unsworth and Lelkes, Nat. Med. 4 (1998), 901-907) in simulated microgravity.
(§3) The otic protectivity of the test compounds PSY 310 and PSY 3101 in the presence of ototoxic agents was tested. Neomycin (an aminoglycoside antibiotic) and cis-platinum (a chemotherapeutic agent) were added in three different concentrations to the cultivate organ over a time period of 48 hours.
(§4) The test compounds were added in six different amounts of 0.1 to 100 μM respectively.

[3] = test system: Outer hair cells (OHC); test: Otoprotection in cultivated cochlea, cis-platin induced loss of outer hair cells; assay type: cell-based; settings: cultivated cochlea of post-natal mice; cis-platin 5 μM; test compound 0.1 to 100 μM; compared to controls
Protocol: as §1, §2, §3, §4

[4] = test system: germ cell tumor cell line 2101 Ep; test: Survival rate of cis-platin treated cancer cell line 2101 Ep with simultaneous test compound; assay type: cell-based; settings: 2101 Ep cells; cis-platin 1.4 μM; 10 μM test compound simultaneously; control DMSO 0.1%
[5] = test system: germ cell tumor cell line NT2; test: Survival rate of cis-platin treated cancer cell line NT2 with simultaneous test compound; assay type: cell-based; settings: cis-platin 1.4 μM, 10 μM test compound simultaneously, control DMSO 0.1%

SMILES	effect on cochleal dysfunctions [1]	preserved fraction of inner hair cells (hair cell protection) [2]	preserved fraction of outer hair cells (hair cell protection) [3]	effect on cytotoxic effect of cis-platinum (survival rate of cancer cells) [4]	effect on cytotoxic effect of cis-platinum (survival rate of cancer cells) [5]
NC(=O)c1cccc(N)c1 [3-aminobenzamide]	alleviates	–	–	–	–
CN1CCN(CC(=O)N2c3ccccc3C(=O)Nc3cccnc32)CC1 [pirenzepine]	–	dosis dependent protection; also recorded: dose-dependent increase	dosis dependent protection; also recorded: dose-dependent increase	does not reduce	does not reduce
